# Data from patent US11999676B2, “Vesicular monoamine transporter-2 ligands and their use in the treatment of psychostimulant abuse” (priority 2016, dated 2024).
# Assays:
# VMAT2 = VMAT2 (Rattus norvegicus (Rat), UniProt Q01827); assay: [3H]Dopamine ([3H]DA) uptake assay, vesicular preparation; format: biochemical; conditions: [3H]DA uptake, rat; read-out: VMAT2 (rat) Inhibition: Mean Ki ± Standard Deviation
# hERG channel = hERG channel (Homo sapiens (Human), UniProt Q12809); assay: [3H]Dofetilide binding assay, HEK-293 cell membrane preparation; conditions: [3H]dofetilide, HEK-293 cell membranes; read-out: hERG Binding: Mean Ki ± Standard Deviation
# Chain of hERG channel (Q12809 whole entry): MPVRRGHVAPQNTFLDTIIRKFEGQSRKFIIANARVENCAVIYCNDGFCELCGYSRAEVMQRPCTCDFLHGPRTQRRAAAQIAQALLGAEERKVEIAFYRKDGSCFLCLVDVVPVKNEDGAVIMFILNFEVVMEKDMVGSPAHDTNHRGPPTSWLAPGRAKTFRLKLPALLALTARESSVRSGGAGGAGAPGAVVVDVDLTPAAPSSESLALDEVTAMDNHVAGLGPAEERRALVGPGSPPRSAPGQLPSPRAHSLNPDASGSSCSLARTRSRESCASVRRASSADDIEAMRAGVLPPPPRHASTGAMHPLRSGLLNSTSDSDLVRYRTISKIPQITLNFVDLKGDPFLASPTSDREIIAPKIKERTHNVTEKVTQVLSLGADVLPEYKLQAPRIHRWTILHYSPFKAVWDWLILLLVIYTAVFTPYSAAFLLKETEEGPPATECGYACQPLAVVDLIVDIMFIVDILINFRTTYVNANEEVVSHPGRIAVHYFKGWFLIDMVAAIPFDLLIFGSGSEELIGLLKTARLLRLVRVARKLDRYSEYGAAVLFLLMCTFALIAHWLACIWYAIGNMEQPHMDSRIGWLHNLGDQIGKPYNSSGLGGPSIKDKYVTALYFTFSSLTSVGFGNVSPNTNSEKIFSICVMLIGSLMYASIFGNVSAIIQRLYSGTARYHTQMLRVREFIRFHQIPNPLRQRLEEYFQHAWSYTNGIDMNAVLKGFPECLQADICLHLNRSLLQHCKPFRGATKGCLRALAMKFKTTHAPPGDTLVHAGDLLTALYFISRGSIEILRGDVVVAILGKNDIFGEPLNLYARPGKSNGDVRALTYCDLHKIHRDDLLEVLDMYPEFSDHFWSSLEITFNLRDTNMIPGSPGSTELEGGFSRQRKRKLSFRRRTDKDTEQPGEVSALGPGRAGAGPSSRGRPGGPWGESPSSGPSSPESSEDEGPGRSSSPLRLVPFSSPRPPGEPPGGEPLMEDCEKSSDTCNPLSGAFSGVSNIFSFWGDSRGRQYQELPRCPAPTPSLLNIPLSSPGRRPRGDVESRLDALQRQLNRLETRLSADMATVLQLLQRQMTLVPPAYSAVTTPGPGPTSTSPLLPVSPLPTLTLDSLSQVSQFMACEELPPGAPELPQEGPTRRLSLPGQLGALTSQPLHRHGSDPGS
# Protocol: [^3H]Dofetilide binding assays were conducted using commercially available HEK-293 cell membranes which stably express the hERG channel. Membranes were suspended in assay buffer (50 mM Tris, 10 mM KCl, 1 mM MgCl2, pH 7.4) prior to the experiment. […] Aliquots of the HEK-293 cell membrane suspension which contained 5 μg membrane protein were added to tubes containing assay buffer, 5 nM [^3H]dofetilide and a range of concentrations of analog (10 nM-100 μM). Nonspecific binding was determined in the presence of amitriptyline (1 mM). Samples were incubated for 1 hr. at 24° C., followed by rapid filtration. […] The affinity for the [^3H]dofetilide binding site on the hERG channel expressed in the HEK-293 cellular membrane was determined from the analog concentration response curves.
# [1] = Microsomal stability assay, human liver microsomes; conditions: for CLint scaled at 0.08 µM / half-life at 0.08 µM: both, human, pooled liver microsomes; for CLint scaled at 0.08 µM: pH 7.4, Microsomal stability assays: Clearance; for half-life at 0.08 µM: pH 7.4, Microsomal stability assays: Half-life
# Protocol: Each plate holds triplicate samples of two controls (0.4 mM) and up to 14 compounds (0.08 mM) in rat and human liver microsomes. Aliquots of each well of the plate (175 μl of each well) were transferred from the master plate into 5 assay plates. For 0-hr time point, pre-cooled (4° C.) internal standard (437.5 μL, 2 μM caffeine in methanol) was added to the first plate before the reaction starts. NADPH regenerating system solution A (6.05 ml, Fisher Scientific, #NC9255727) was combined with NADPH regenerating system solution B (1.21 ml, Fisher Scientific, #NC9016235) in potassium phosphate buffer (15.8 ml, 0.1 M, pH 7.4, 37° C.). The resulting NADPH solution (43.8 μl) was added to each well of all the 96-well assay plates and mixed with pipette briefly making the final protein and compound concentrations respectively: 0.5 mg/ml, 0.08 μM (0.4 μM for controls). Plates were sealed, and all plates except the 0-hr plate were incubated at 37° C., shaken at a speed of 60 rpm. A single assay plate was tested at each time point: 0.5 hr, 1 hr, 2 hr, and 4 hr. At each time point, 437.5 μL of pre-cooled internal standard was added each well of the plate to quench the reaction. […] 120 μl supernatant was transferred to a 96-well plate, centrifuged again and analyzed by UPLC-MS (Waters Inc., Milford, MA). The compounds and internal standard were detected by selected ion recording (SIR).
# The amount of material was measured as a ratio of peak area to the internal standard and graphed. Using the slope from the initial linear portion of this curve, the degradation rate constant is calculated using equation [1].
# [2] = Microsomal stability assay, rat liver microsomes; conditions: for CLint scaled at 0.08 µM / half-life at 0.08 µM: female, Sprague-Dawley, rat, liver microsomes; for CLint scaled at 0.08 µM: pH 7.4, Microsomal stability assays: Clearance; for half-life at 0.08 µM: pH 7.4, Microsomal stability assays: Half-life
Compound,Ki (VMAT2) [nM],CLint scaled at 0.08 µM [1] [mL/min/kg],half-life at 0.08 µM [1] [min],also measured
CC(Cc1ccc(C(F)(F)F)cc1)NCCCc1ccc(N)cc1 (stereo not drawn) [Compound 54],61.8 ± 1.69,–,–,Ki (hERG channel): 908 ± 102 nM
CC(Cc1ccc(F)cc1)NCCCc1ccc2[nH]ccc2c1 (stereo not drawn) [Compound 56],–,106,12,–
COc1ccc(CC(C)NCCCc2ccc(N)cc2)cc1 (stereo not drawn) [Compound 57],68.9 ± 13.3,–,–,Ki (hERG channel): 4250 ± 220 nM
COc1ccc(CC(C)NCCCc2ccc([N+](=O)[O-])cc2)cc1 (stereo not drawn) [Compound 58],16.6 ± 3.99,–,–,Ki (hERG channel): 42.3 ± 8.21 nM
CC(Cc1ccc(F)c(F)c1)NCCCc1ccc([N+](=O)[O-])cc1 (stereo not drawn) [Compound 59],13.1 ± 2.87,–,–,Ki (hERG channel): 55.6 ± 7.7 nM
CC(Cc1ccc(F)c(F)c1)NCCCc1ccc(N)cc1 (stereo not drawn) [Compound 61],–,9.6,132,–
CC(Cc1ccc(Cl)cc1)NCCCc1ccc(N)cc1 (stereo not drawn) [Compound 63],–,11.6,108,–
CC(Cc1ccc(Cl)cc1)NCCCc1ccc([N+](=O)[O-])cc1 (stereo not drawn) [Compound 64],16.4 ± 1.47,–,–,Ki (hERG channel): 28.8 ± 13.7 nM
CC(=O)Nc1ccc(CCCNC(C)Cc2ccc(F)cc2)cc1 (stereo not drawn) [Compound 67],–,< 10,> 240,–
CC(Cc1ccc(NC=O)cc1)N(C=O)CCCc1ccc(F)cc1 (stereo not drawn) [Compound 74],8.82 ± 2.05,–,–,Ki (hERG channel): 831 ± 187 nM
FCC(Cc1ccc(Br)cc1)NCCCc1ccc(F)cc1 (stereo not drawn) [Compound 86],–,18.1,66,–
CC(Cc1ccc(F)cc1)NCCCc1c[nH]c2ccccc12 (stereo not drawn) [Compound 92],–,112,12,–
CC(Cc1ccc(F)cc1)NCCCc1ccc(N)cc1 (stereo not drawn) [Compound 95],–,12.9,96,–
CC(Cc1ccc(F)c(F)c1)NCCCc1ccncc1 (stereo not drawn) [Compound 97],–,11.9,102,–
FCC(Cc1ccccc1)NCCCc1ccccc1 (stereo not drawn) [Compound 99],–,119,12,–
FCC(Cc1ccc(F)cc1)NCCCc1ccccc1 (stereo not drawn) [Compound 100],51.2 ± 12,–,–,Ki (hERG channel): 7390 ± 1360 nM
FCC(Cc1ccccc1)NCCCc1ccc(F)cc1 (stereo not drawn) [Compound 102],–,33.9,36,–
Nc1ccc(CCCNC(CF)Cc2ccc(F)cc2)cc1 (stereo not drawn) [Compound 107],105 ± 0.189,–,–,CLint scaled at 0.08 µM [2]: 82.2 mL/min/kg; half-life at 0.08 µM [2]: 36 min
Nc1ccc(CCCNC(CF)Cc2ccc(F)cc2)cc1 (stereo not drawn) [Compound 108],–,9.6,132,–
CC(Cc1ccc([N+](=O)[O-])cc1)NCCCc1ccncc1 (stereo not drawn) [Compound 113],157 ± 72.5,6.3,198,–
CC(Cc1ccc(F)cc1)NCCCn1cccn1 (stereo not drawn) [Compound 132],709 ± 172,–,–,CLint scaled at 0.08 µM [2]: 180 mL/min/kg; half-life at 0.08 µM [2]: 18 min
CC(Cc1ccc(F)cc1)NCCCn1cccn1 (stereo not drawn) [Compound 133],–,< 5.2,> 240,–
CC(Cc1ccc(F)cc1)NCCCn1ccnc1 (stereo not drawn) [Compound 134],517 ± 112,< 5.2,> 240,–
CC(Cc1ccc(F)cc1)NCCCc1ccc(S(C)(=O)=O)cc1 (stereo not drawn) [Compound 138],146 ± 41.9,< 5.2,> 240,–
CC(C)C(Cc1ccc(F)cc1)NCCCc1ccc(Br)cc1 (stereo not drawn) [Compound 140],132 ± 29.5,14.4,84,–
FCC(Cc1ccc(F)cc1)NCCCc1ccc(Cl)cc1 (stereo not drawn) [Compound 151],–,22.6,54,–
FCC(Cc1ccc(F)cc1)NCCCc1ccc(F)cc1 (stereo not drawn) [Compound 153],–,20.5,60,–

Compound,Ki (VMAT2) [nM],CLint scaled at 0.08 µM [1] [mL/min/kg],half-life at 0.08 µM [1] [min],also measured
CC(Cc1ccc(F)cc1)NCCCc1ccc(N(C)C)cc1 (stereo not drawn) [Compound 156],118 ± 25.8,182,–,Microsomal stability assays: Half-life [1]: 6 min
CCOC(=O)c1ccc(CCCNC(C)Cc2ccc(F)cc2)cc1 (stereo not drawn) [Compound 159],–,216,–,Microsomal stability assays: Half-life [1]: 6 min
CC(Cc1ccc(F)cc1)NCCCc1ccc([N+](=O)[O-])cc1 (stereo not drawn) [Compound 161],–,< 5.2,> 240,–
CC(Cc1ccc(-c2cncnc2)cc1)NCCCc1ccc(Cl)cc1 (stereo not drawn) [Compound 171],–,75.2,18,–
COc1ccc(CCCNC(C)Cc2ccncc2)cc1 (stereo not drawn) [Compound 172],186 ± 127,42.9,30,–
CC(Cc1ccc(Br)cc1)NCCCc1ccncc1 (stereo not drawn) [Compound 175],–,< 5.2,> 240,–
CC(Cc1ccc(F)cc1)NCCCc1ccncc1 (stereo not drawn) [Compound 177],–,< 5.2,> 240,–
CC(Cc1ccncc1)NCCCc1ccc(O)cc1 (stereo not drawn) [Compound 179],–,< 5.2,> 240,–
CC(Cc1ccc(Br)cc1)NCCCc1ccc(I)cc1 (stereo not drawn) [Compound 181],–,< 5.2,> 240,–
CC(Cc1ccc(F)cc1)NCCCc1ccc(I)cc1 (stereo not drawn) [Compound 183],–,< 5.2,> 240,–
CC(Cc1ccc(Br)cc1)NCCCc1ccc(Cl)cc1 (stereo not drawn) [Compound 185],–,< 5.2,> 240,–
CC(Cc1ccc(F)cc1)NCCCc1ccc(Cl)cc1 (stereo not drawn) [Compound 189],–,–,–,CLint scaled at 0.08 µM [2]: > 400 mL/min/kg; half-life at 0.08 µM [2]: < 6 min
CC(Cc1ccc(F)cc1)NCCCc1ccc(F)cc1 (stereo not drawn) [Compound 191],–,–,–,CLint scaled at 0.08 µM [2]: 195 mL/min/kg; half-life at 0.08 µM [2]: 12 min
CC(Cc1ccc(-c2cccnc2)cc1)NCCCc1ccc(F)cc1 (stereo not drawn) [Compound 193],–,144,–,Microsomal stability assays: Half-life [1]: 6 min
CC(Cc1ccccc1)NCCCc1ccc(C(F)(F)F)cc1 (stereo not drawn) [Compound 195],–,< 5.2,> 240,–
CC(Cc1ccc(-c2cncnc2)cc1)NCCCc1ccc(F)cc1 (stereo not drawn) [Compound 197],–,40.4,30,–
COc1ccc(CCC(C)NC(C)Cc2ccccc2)cc1 (stereo not drawn) [Compound 198],152 ± 25.6,–,–,Microsomal stability assays: Half-life [2]: 6 min; CLint scaled at 0.08 µM [2]: 414 mL/min/kg
COc1ccc(CCC(C)NC(C)Cc2ccccc2)cc1 (stereo not drawn) [Compound 199],–,> 400,< 6,–
CC(Cc1ccc(Br)cc1)NCCCc1ccc(F)cc1 (stereo not drawn) [Compound 201],–,< 5.2,> 240,–
CC(Cc1ccccc1)NCCCc1ccc(-c2cncnc2)cc1 (stereo not drawn) [Compound 202],119 ± 31.8,155,–,Microsomal stability assays: Half-life [1]: 6 min
CC(Cc1ccccc1)NCCCc1ccc(-c2cncnc2)cc1 (stereo not drawn) [Compound 203],–,–,–,CLint scaled at 0.08 µM [2]: 248 mL/min/kg; half-life at 0.08 µM [2]: 12 min
CC(Cc1ccccc1)NCCCc1ccncc1 (stereo not drawn) [Compound 205],–,–,–,CLint scaled at 0.08 µM [2]: 90.6 mL/min/kg; half-life at 0.08 µM [2]: 30 min
CCC(Cc1ccccc1)NCCCc1ccc(O)cc1 (stereo not drawn) [Compound 208],–,> 400,< 6,–
CC(Cc1ccccc1)NCCCc1ccc(-c2cccnc2)cc1 (stereo not drawn) [Compound 211],–,> 400,< 6,–
CC(Cc1ccccc1)NCCCc1ccc(S)cc1 (stereo not drawn) [Compound 217],–,–,–,Microsomal stability assays: Clearance [2]: 170 mL/min/kg
CC(Cc1ccccc1)NCCCc1ccc(Br)cc1 (stereo not drawn) [Compound 219],–,–,–,CLint scaled at 0.08 µM [2]: > 400 mL/min/kg; half-life at 0.08 µM [2]: < 6 min
CC(Cc1ccccc1)NCCCc1ccc(O)cc1 (stereo not drawn) [Compound 224],–,–,–,CLint scaled at 0.08 µM [2]: > 400 mL/min/kg; half-life at 0.08 µM [2]: < 6 min
